{"source": "patent US9155722B2", "about": "“Reconstitutable reverse thermal gelling polymers” (PROTHERICS SALT LAKE CITY, INC., priority 2009, dated 2015)", "key": {"physchem": {"experiment": "physchem", "protocol": "For solubilization studies, the calculated amount of Paclitaxel was add to the block polymers aqueous solution (prepared according to Example 5) and stirred for 10-20 minute at room temperature or 4° C."}, "[1]": {"experiment": "Stability of paclitaxel in copolymer solution or gel", "format": "physicochemical"}, "[2]": {"details": "cited from earlier work"}}, "data": [{"smiles": "CC(=O)O[C@H]1C(=O)[C@@]2(C)[C@H]([C@H](OC(=O)c3ccccc3)[C@]3(O)C[C@H](OC(=O)[C@H](O)[C@@H](NC(=O)c4ccccc4)c4ccccc4)C(C)=C1C3(C)C)[C@]1(OC(C)=O)CO[C@@H]1C[C@@H]2O", "note": "[paclitaxel]", "values": [{"measurement": "increase in solubility of paclitaxel", "setting": "physchem", "value": "~3000", "unit": "fold"}, {"measurement": "solubility", "setting": "physchem; aqueous with cosolvent or surfactant or cyclodextrin, thermodynamic from solid", "value": "≤ 12", "unit": "mg/mL"}, {"measurement": "paclitaxel intact", "setting": "[1]; 23% by weight aqueous triblock copolymer solutions or gels, after 30 days in storage (2 to 8° C. and 37° C.)", "value": "> 90", "unit": "%"}, {"measurement": "paclitaxel degraded", "setting": "[1]; aqueous cosolvent solution, in less than one week at 37° C.", "value": "> 50", "unit": "%"}, {"measurement": "solubility in water", "setting": "[2]", "value": "approximately 4 μg/ml"}]}]}
